Reference: publication PMC7153038, “Pharmacologic inhibition of RGD‐binding integrins ameliorates fibrosis and improves function following kidney injury” (Physiological Reports, 2020)
Where two headings read alike, the source gives them in different places.

Legend:
[1] = system: non‐RGD‐binding integrins; set-up: method as in Henderson et al., 2013; details: ref Henderson et al., 2013; cited from earlier work
[2] = molecular target: T1, integrin αvβ8 (Homo sapiens, UniProt P06756+P26012); assay: integrin αvβ8-mediated attachment of transfected HEK-293 cells to LAP; assay type: cell-based; details: mean and SD, at least 3 independent assays; transfected HEK-293, LAP ligand; read-out: IC50, inhibition of αvβ8-mediated cell attachment
T1 construct: expressed in transfected cells
T1 sequence (P06756 31-889 limits assumed): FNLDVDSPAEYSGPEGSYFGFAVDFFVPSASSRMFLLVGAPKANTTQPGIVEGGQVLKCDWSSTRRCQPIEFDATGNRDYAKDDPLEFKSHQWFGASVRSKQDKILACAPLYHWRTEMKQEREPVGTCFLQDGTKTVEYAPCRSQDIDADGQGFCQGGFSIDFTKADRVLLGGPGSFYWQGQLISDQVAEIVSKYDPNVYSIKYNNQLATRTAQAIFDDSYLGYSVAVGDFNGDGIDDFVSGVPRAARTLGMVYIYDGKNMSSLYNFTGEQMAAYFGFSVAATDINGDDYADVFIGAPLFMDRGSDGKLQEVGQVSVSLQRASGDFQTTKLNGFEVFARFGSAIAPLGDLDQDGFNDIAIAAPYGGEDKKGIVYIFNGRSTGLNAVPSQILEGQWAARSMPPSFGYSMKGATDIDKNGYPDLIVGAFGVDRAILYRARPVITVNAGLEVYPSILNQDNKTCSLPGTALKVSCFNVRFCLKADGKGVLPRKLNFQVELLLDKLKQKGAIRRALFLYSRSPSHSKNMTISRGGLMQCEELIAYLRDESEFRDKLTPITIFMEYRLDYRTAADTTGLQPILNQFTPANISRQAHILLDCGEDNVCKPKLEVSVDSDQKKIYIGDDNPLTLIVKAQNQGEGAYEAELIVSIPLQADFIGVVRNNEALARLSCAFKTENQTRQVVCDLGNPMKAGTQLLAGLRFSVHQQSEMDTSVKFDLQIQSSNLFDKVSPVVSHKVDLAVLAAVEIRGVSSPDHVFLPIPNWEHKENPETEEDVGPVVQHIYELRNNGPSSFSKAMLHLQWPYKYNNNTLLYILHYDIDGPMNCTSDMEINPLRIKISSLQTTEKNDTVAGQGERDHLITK
T1 sequence (P06756 891-1048 partner limits assumed): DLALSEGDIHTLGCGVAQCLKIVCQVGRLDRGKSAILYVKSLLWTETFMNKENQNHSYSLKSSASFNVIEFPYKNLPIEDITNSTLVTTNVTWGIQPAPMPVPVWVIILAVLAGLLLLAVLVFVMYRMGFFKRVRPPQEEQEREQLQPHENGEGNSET
T1 sequence (P26012 43-769): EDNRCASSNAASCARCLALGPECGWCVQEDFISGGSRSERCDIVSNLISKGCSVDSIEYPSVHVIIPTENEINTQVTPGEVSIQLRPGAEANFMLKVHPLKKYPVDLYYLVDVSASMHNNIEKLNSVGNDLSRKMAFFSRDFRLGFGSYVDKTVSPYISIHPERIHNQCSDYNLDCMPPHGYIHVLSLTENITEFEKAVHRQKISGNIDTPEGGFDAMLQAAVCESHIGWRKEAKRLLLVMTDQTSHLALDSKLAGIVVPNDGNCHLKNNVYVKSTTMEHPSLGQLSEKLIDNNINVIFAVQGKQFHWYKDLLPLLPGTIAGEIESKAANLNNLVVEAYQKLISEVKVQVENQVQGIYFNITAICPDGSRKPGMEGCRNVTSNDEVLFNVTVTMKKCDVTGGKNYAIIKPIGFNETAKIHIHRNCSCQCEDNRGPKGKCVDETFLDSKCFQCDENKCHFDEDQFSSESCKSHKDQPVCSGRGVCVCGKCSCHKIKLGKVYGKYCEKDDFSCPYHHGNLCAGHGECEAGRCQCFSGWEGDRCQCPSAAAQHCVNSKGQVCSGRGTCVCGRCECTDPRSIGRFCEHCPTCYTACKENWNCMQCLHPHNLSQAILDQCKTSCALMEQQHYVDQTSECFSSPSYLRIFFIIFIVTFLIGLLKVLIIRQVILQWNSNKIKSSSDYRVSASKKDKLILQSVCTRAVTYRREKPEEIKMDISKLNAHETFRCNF
Method: (§1) The RGD peptidomimetic CWHM‐12 was synthesized as described in detail previously (Henderson et al., 2013). A close structural analog of this compound with improved oral bioavailability, CWHM‐680, was also synthesized at Saint Louis University. Potency for the compounds in blocking cell attachment mediated by integrins αvβ3, αvβ5, and αvβ6 was measured as previously described (Henderson et al., 2013). Potency for blocking cell attachment mediated by integrins αvβ1, αvβ8, and α8β1 was measured using modifications of this method which are briefly summarized as follows: To assess CWHM‐12 and CWHM‐680 effects on cellular αvβ1 function, we varied its concentration in an assay measuring binding of HEK‐293 cells, which naturally express this integrin (Nagarajan et al., 2007), to the surface of 96‐well plates coated with purified recombinant human TGFβ‐1 latency‐associated peptide (R&D Systems). To assess the effect on cellular αvβ8 function, we performed the assay with the same LAP ligand but with HEK‐293 cells which had been stably transfected to overexpress this integrin. To assess the effect on cellular α8β1 function, we performed the assay using HEK‐293 cells, which had been stably transfected to overexpress this integrin and used purified recombinant mouse nephronectin as the immobilized ligand (R&D Systems). […]

[3] = system: aristolochic acid-induced kidney fibrosis in ICR mice; assay: aristolochic acid kidney injury model, kidney histology and immunofluorescence; assay type: in vivo, mouse; details: AA-injured, 100 mg/kg/day s.c. minipump
Method: Alzet osmotic minipumps (Cupertino, CA) were implanted subcutaneously in 8‐ to 10‐week‐old wild‐type male ICR outbred mice (Envigo) one day prior to induction of kidney injury to deliver vehicle (DMSO/H2O 1:1) or CWHM‐12 at a dose of 100 mg/kg per day. A single 5 mg/kg dose of aristolochic acid I sodium salt (Sigma‐Aldrich, A9451) in PBS was administered intraperitoneally to induce kidney injury, and mice were monitored daily for 27 days thereafter. Control (uninjured) mice were injected with an equal volume of PBS. Blood was obtained by maxillary vein puncture on days 0, 5 (peak injury), and 28 (study endpoint). For testing CWHM‐680, oral gavage (100 mg/kg per day) was started one day prior to injection of aristolochic acid I sodium salt and continued once daily until the study endpoint. Blood was obtained at days 0, 7, and 23 (study endpoint). […] Serum creatinine was measured by liquid chromatography–mass spectrometry (LC–MS/MS) at the University of Alabama O’Brien Center Bioanalytical Core. CWHM‐12 and CWHM‐680 concentrations were measured in plasma samples by liquid chromatography–tandem mass spectrometry (LC/MS/MS) using compound spiked into control plasma as a standard. All experiments were performed under protocols approved by the Institutional Animal Care and Use Committee at St. Louis University.
Harvested kidneys were bisected and harvested for RNA and protein, and fixed in 4% PFA for antibody staining and histological staining with Sirius red or Masson's trichrome. Paraffin sections (4 µm) were stained with Sirius red or Masson trichrome and imaged with polarized light and bright‐field illumination. For immunofluorescence, 7‐μm frozen sections were washed with ice‐cold 100% methanol, boiled in 10 mM citric acid (pH 6) for 20 min, and incubated with primary antibodies against αSMA (Millipore), PDGFR‐β (gift from B. Stallcup), or with biotin‐LTL (Vector Laboratories). Reactivity was detected using fluorescently labeled secondary antibodies. Sections were counterstained with DAPI (Sigma‐Aldrich), mounted in Mowiol 4–88 (Poly Sciences), and digital images acquired using a Leica DM5000B epifluorescence microscope and Leica DFC365FX camera. To quantify percent area stained for Sirius red, PDGFR‐β, and α‐SMA, we analyzed images from each of at least 4 biological replicates by batch processing using a macro created in Image J. Images were converted to 8‐bit grayscale, the threshold adjusted, and percent area measured. To quantify intact proximal tubules with brush borders, LTL‐positive tubules were counted by an observer blinded to the experimental conditions using Image J.

[4] = molecular target: T2, integrin αvβ1 (Homo sapiens, UniProt P05556+P06756); assay: integrin αvβ1-mediated attachment of HEK-293 cells to TGFβ-1 latency-associated peptide; assay type: cell-based; details: mean and SD, at least 3 independent assays, LAP ligand
T2 construct: HEK‐293 cells, which naturally express this integrin; endogenous in cells; host or cells: HEK-293
T2 sequence (P06756 31-889 limits assumed): as the sequence (P06756 31-889 limits assumed) above
T2 sequence (P06756 891-1048 partner limits assumed): as the sequence (P06756 891-1048 partner limits assumed) above
T2 sequence (P05556 21-798): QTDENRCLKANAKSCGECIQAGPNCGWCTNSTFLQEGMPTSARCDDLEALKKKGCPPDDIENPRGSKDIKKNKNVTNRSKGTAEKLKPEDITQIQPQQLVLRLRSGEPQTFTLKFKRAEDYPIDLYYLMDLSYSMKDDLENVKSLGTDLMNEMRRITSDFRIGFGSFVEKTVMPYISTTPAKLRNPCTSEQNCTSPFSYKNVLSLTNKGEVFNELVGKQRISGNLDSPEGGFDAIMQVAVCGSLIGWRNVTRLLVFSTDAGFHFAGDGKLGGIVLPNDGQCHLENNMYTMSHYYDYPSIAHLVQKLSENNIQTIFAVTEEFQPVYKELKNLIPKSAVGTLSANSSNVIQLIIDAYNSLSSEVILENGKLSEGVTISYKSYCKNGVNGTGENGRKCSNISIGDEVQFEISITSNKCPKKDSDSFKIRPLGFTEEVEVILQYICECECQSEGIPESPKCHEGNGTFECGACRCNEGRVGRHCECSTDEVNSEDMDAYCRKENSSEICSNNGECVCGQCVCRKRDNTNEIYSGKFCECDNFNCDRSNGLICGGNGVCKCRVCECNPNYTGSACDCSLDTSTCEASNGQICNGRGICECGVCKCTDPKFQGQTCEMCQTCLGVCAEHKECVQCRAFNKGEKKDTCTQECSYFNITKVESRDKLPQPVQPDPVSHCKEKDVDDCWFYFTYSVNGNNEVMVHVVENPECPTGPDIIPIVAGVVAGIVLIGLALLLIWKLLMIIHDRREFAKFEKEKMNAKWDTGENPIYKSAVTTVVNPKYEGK
Method: as §1

SMILES: CC(C)(C)c1cc(Br)cc([C@H](CC(=O)O)NC(=O)CNC(=O)c2cc(O)cc(NC3=NCC(O)CN3)c2)c1 (stereo partly drawn) [CWHM‐12]
- effect on ligand binding by non‐RGD‐binding integrins [1]: nor does it affect ligand binding
- IC50 [2]: 5.8 ± 2.3 nM
- Masson trichrome staining, collagen deposition vs vehicle [3]: reduced collagen deposition
- reduction in percent area stained for PDGFR‐β vs vehicle [3]: 44%
- reduction in percent area stained for αSMA vs vehicle [3]: 45%
- reduction in percent area stained by Sirius red vs vehicle ([3]; day 27): 68%
- number of intact proximal tubules (LTL staining) ([3]; 27 days, vehicle 40.9 ± 1.6): 57.1 ± 1.7
- IC50 ([4]; listed as CWHM−12, read-out: IC50, inhibition of αvβ1-mediated cell attachment): 0.29 ± 0.14 nM
- IC50 ([4]; read-out: IC50, inhibition of αvβ1-mediated cell attachment): < 1 nM
